Laboratory results from ChEMBL document CHEMBL1151485, “Glyco-S-nitrosothiols, a novel class of no donor compounds” (Bioorg Med Chem Lett, 1996).
≈ marks a conversion by molar mass, not a printed value.

Legend:
[1] = Compound was evaluated for its stability in phosphate buffer in presence of EDTA at pH 7.4; type: physicochemical; conditions: phosphate buffer with EDTA
[2] = Compound was evaluated for its stability in phosphate buffer in absence of EDTA at pH 7.4; type: physicochemical; conditions: phosphate buffer without EDTA
[3] = Solubility of compound in 50 mM sodium phosphate buffer at room temperature; type: physicochemical; conditions: read-out: S
[4] = Half-life in phosphate buffer at pH 7 and 37 degree C; type: ADME

| half-life [1] | half-life [2] | solubility [3] | half-life [4] | SMILES |
| --- | --- | --- | --- | --- |
| 28.5 h | 30.2 h | > 1000 mg/mL | – | CC(=O)NC(C(=O)NC1OC(CO)C(O)C(O)C1O)C(C)(C)SN=O (stereo not drawn) |
| 27.5 h | 27.4 h | > 1000 mg/mL | – | CC(=O)NC(C(=O)NC1C(O)OC(CO)C(O)C1O)C(C)(C)SN=O (stereo not drawn) |
| 15.9 h | 10.3 h | 2 mg/mL (≈ 9.08 mM) | 5 h | CC(=O)N[C@@H](C(=O)O)C(C)(C)SN=O |
| 30.2 h | 28.2 h | > 1000 mg/mL | – | COC1OC(CNC(=O)C(NC(C)=O)C(C)(C)SN=O)C(O)C(O)C1O (stereo not drawn) |
